The text below walks through data of paper PMC10066365, “Nemacol is a small molecule inhibitor of C. elegans vesicular acetylcholine transporter with anthelmintic potential” (Nature Communications, 2023).

Molecules are shown by their SMILES. “And” between values parts separate entries of the source, which are not always exact repeats. Equal entries are not always repeated.

The experiment concerns Dirofilaria immitis microfilariae. Kind of experiment: Dirofilaria immitis microfilariae motility (optical flow, ImageXpress/wrmXpress) and CellTox Green viability, second lab. How it is done: We also conducted Dirofilaria immitis experiments in the lab of M. Zamanian (Univeristy of Wisconsin). For this experiment, shown in Supplementary Fig. 6, Microfilaremic blood was obtained from the NIH/NIAID Filariasis Research Reagent Resource Center (FR3)[70]. Blood was drawn and shipped approximately 24 h before use. Upon arrival, blood was warmed to 37 °C then combined with a 0.85% sodium chloride and 0.2% saponin solution in a 1:11 volumetric ratio and incubated in a 37 °C water bath for 15 min. The hemolyzed solution was passed through a 25 mm 5.0 μm pore size syringe filter. The used filter disks were transferred to petri dishes filled with RPMI 1640 culture media with 1% penicillin/streptomycin (0.1 mg/mL) and incubated at 37 °C for 2 h while microfilariae (mf) separated from the disks. Disks were discarded and mf titered to 5 mf/μL.
Aliquots of titered mf were incubated on a heating block at 60 °C for 1 h to produce heat killed positive controls. One μL of 100× drug was aliquoted to each well of a 96-well plate; 100 μL of live mf were added to treatment wells and 100 μL of heat killed mf were added to positive control wells (for a total of 500 mf/well). Plates were sealed with a breathable plate cover and maintained at 37 °C and 5% atmospheric CO2. […] Image analysis and the subsequent measurement of optical flow and fluorescence was performed using wrmXpress v1.3.02[71]. […]

With `O=[N+]([O-])c1ccc(N2CCN(CC3CCCCC3)CC2)cc1` [Nemacol-1], the “impact on IVM's ability to paralyze Dirofilaria” value is listed as “no impact”; the optical_flow is 64671429 and 95056554 and 124845938 and 124294468.
